Assay results from ChEMBL document CHEMBL4334548, “Discovery of Isoxazole Amides as Potent and Selective SMYD3 Inhibitors” (ACS Med Chem Lett, 2020).
Values after ≈ are worked out from the molar mass of the structure shown. Blank lines part the entries; values can stand above or below the compound they belong to.

Key:
[1] = Solubility of compound by CLND method; type: physicochemical
[2] = Permeability of compound; type: ADME; conditions: not told; read-out: permeability
[3] = AUC in Sprague-Dawley rat at 2 mg/kg, po; type: ADME, organism-based; conditions: in vivo
[4] = Oral bioavailability in Sprague-Dawley rat at 2 mg/kg; type: ADME, organism-based; conditions: in vivo; for bioavailability: Sprague-Dawley
[5] = Clearance in Sprague-Dawley rat at 1 mg/kg, iv or 2 mg/kg, po; type: ADME, organism-based; conditions: in vivo
[6] = Volume of distribution in Sprague-Dawley rat at 1 mg/kg, iv or 2 mg/kg, po; type: ADME, organism-based; conditions: in vivo
[7] = Half life in Sprague-Dawley rat at 1 mg/kg, iv or 2 mg/kg, po; type: ADME, organism-based; conditions: in vivo
[8] = Volume of distribution in Sprague-Dawley rat at 1 mg/kg, iv or 5 mg/kg, po; type: ADME, organism-based; conditions: in vivo
[9] = Half life in Sprague-Dawley rat at 1 mg/kg, iv or 5 mg/kg, po; type: ADME, organism-based; conditions: in vivo
[10] = AUC in Sprague-Dawley rat at 5 mg/kg, po; type: ADME, organism-based; conditions: in vivo
[11] = Oral bioavailability in Sprague-Dawley rat at 5 mg/kg; type: ADME, organism-based; conditions: in vivo
[12] = Clearance in Sprague-Dawley rat at 0.5 mg/kg, iv or 2 mg/kg, po; type: ADME, organism-based; conditions: in vivo
[13] = Volume of distribution in Sprague-Dawley rat at 0.5 mg/kg, iv or 2 mg/kg, po; type: ADME, organism-based; conditions: in vivo
[14] = Half life in Sprague-Dawley rat at 0.5 mg/kg, iv or 2 mg/kg, po; type: ADME, organism-based; conditions: in vivo

Compound: N[C@H]1CC[C@H](S(=O)(=O)N2CCC(NC(=O)c3cc(C4CC4)on3)CC2)CC1
- solubility kinetic [1]: 329 µM (≈ 130 µg/mL)
- Papp [2]: < 1 ×10⁻⁶ cm/s

Compound: CN[C@H]1CC[C@H](CS(=O)(=O)N2CCC(NC(=O)c3cc(C4CC4)on3)CC2)CC1
- solubility kinetic [1]: 297 µM (≈ 126 µg/mL)
- Papp [2]: < 1 ×10⁻⁶ cm/s

Compound: O=C(NC1CCN(S(=O)(=O)C[C@H]2CC[C@H](NCCC(F)(F)F)CC2)CC1)c1cc(C2CC2)on1
- solubility kinetic [1]: 48 µM (≈ 24.3 µg/mL)
- Papp [2]: 16 ×10⁻⁶ cm/s

Compound: O=C(NC1CCN(S(=O)(=O)C[C@H]2CC[C@H](NCc3ccc(Cl)cc3)CC2)CC1)c1cc(C2CC2)on1
- solubility kinetic [1]: 6 µM (≈ 3.21 µg/mL)
- Papp [2]: 44 ×10⁻⁶ cm/s
- AUC ([3]; Sprague-Dawley, read-out: AUC): 365 ng·h/mL
- bioavailability [4]: 70%
- clearance [5]: 36 mL/min/kg
- Vd [6]: 14.7 L/kg
- half-life [7]: 7.3 h

Compound: CS(=O)(=O)N1CCC(NC(=O)c2cc(C3CC3)on2)CC1
- Vd [8]: 1.2 L/kg
- solubility kinetic [1]: 55 µM (≈ 17.2 µg/mL)
- Papp [2]: 12 ×10⁻⁶ cm/s
- half-life [9]: 2.5 h
- AUC [10]: 2142 ng·h/mL
- F [11]: 79%

Compound: O=C(NC1CCN(S(=O)(=O)C[C@H]2CC[C@H](NCc3cncc(F)c3)CC2)CC1)c1cc(C2CC2)on1
- solubility kinetic [1]: 12 µM (≈ 6.24 µg/mL)
- Papp [2]: 11 ×10⁻⁶ cm/s

Compound: O=C(NC1CCN(S(=O)(=O)C[C@H]2CC[C@H](NCc3ccccc3)CC2)CC1)c1cc(C2CC2)on1
- solubility kinetic [1]: 1 µM (≈ 0.501 µg/mL)
- clearance [12]: 90 mL/min/kg
- Vd [13]: 16.1 L/kg
- half-life [14]: 3.6 h
- AUC ([3]; Sprague-Dawley, read-out: AUC): 149 ng·h/mL
- bioavailability [4]: 79%

Compound: CCCCN[C@H]1CC[C@H](CS(=O)(=O)N2CCC(NC(=O)c3cc(C4CC4)on3)CC2)CC1
- solubility kinetic [1]: 234 µM (≈ 109 µg/mL)
- Papp [2]: 6.8 ×10⁻⁶ cm/s

Compound: Cc1ccc(CN[C@H]2CC[C@H](CS(=O)(=O)N3CCC(NC(=O)c4cc(C5CC5)on4)CC3)CC2)cc1
- solubility kinetic [1]: 10 µM (≈ 5.15 µg/mL)
- Papp [2]: 14 ×10⁻⁶ cm/s

Compound: O=C(NC1CCN(S(=O)(=O)C[C@H]2CC[C@H](NCc3cccnc3)CC2)CC1)c1cc(C2CC2)on1
- solubility kinetic [1]: 194 µM (≈ 97.3 µg/mL)
- Papp [2]: 5.5 ×10⁻⁶ cm/s

Compound: NC[C@H]1CC[C@H](S(=O)(=O)N2CCC(NC(=O)c3cc(C4CC4)on3)CC2)CC1
- solubility kinetic [1]: 479 µM (≈ 197 µg/mL)
- Papp [2]: < 1 ×10⁻⁶ cm/s

Further lines, results first:

- solubility kinetic [1]: 410 µM (≈ 168 µg/mL)
- Papp [2]: 5 ×10⁻⁶ cm/s
Compound: O=C(NC1CCN(S(=O)(=O)CCCN2CCCC2)CC1)c1cc(C2CC2)on1

- solubility kinetic [1]: 15 µM (≈ 7.72 µg/mL)
Compound: Cc1ccccc1CN[C@H]1CC[C@H](CS(=O)(=O)N2CCC(NC(=O)c3cc(C4CC4)on3)CC2)CC1

- solubility kinetic [1]: 297 µM (≈ 154 µg/mL)
- Papp [2]: 32 ×10⁻⁶ cm/s
- AUC [3]: 87 ng·h/mL
- F [4]: 65%
- Vd [6]: 9.4 L/kg
- half-life [7]: 1.7 h
Compound: O=C(NC1CCN(S(=O)(=O)C[C@H]2CC[C@H](NCc3ccccc3F)CC2)CC1)c1cc(C2CC2)on1

- solubility kinetic [1]: 385 µM (≈ 143 µg/mL)
- Papp [2]: < 1 ×10⁻⁶ cm/s
Compound: NCCCCS(=O)(=O)N1CCC(NC(=O)c2cc(C3CC3)on2)CC1

- solubility kinetic [1]: 14 µM (≈ 7.49 µg/mL)
Compound: CN(CCCC(F)(F)F)[C@H]1CC[C@H](CS(=O)(=O)N2CCC(NC(=O)c3cc(C4CC4)on3)CC2)CC1

- solubility kinetic [1]: 367 µM (≈ 176 µg/mL)
- Papp [2]: 14 ×10⁻⁶ cm/s
Compound: CC(C)(C)CN[C@H]1CC[C@H](CS(=O)(=O)N2CCC(NC(=O)c3cc(C4CC4)on3)CC2)CC1

- solubility kinetic [1]: 434 µM (≈ 203 µg/mL)
- Papp [2]: 6.1 ×10⁻⁶ cm/s
Compound: CC(C)CN[C@H]1CC[C@H](CS(=O)(=O)N2CCC(NC(=O)c3cc(C4CC4)on3)CC2)CC1

- solubility kinetic [1]: 26 µM (≈ 12.3 µg/mL)
- Papp [2]: 7.9 ×10⁻⁶ cm/s
Compound: O=C(NC1CCN(S(=O)(=O)c2ccc(CN3CCCCC3)cc2)CC1)c1cc(C2CC2)on1

- solubility kinetic [1]: 52 µM (≈ 26.1 µg/mL)
- Papp [2]: 6.4 ×10⁻⁶ cm/s
Compound: O=C(NC1CCN(S(=O)(=O)C[C@H]2CC[C@H](NCc3ccccn3)CC2)CC1)c1cc(C2CC2)on1

- solubility kinetic [1]: 306 µM (≈ 100 µg/mL)
- Papp [2]: 24 ×10⁻⁶ cm/s
Compound: CCS(=O)(=O)N1CCC(NC(=O)c2cc(C3CC3)on2)CC1

- solubility kinetic [1]: 297 µM (≈ 122 µg/mL)
- Papp [2]: < 1 ×10⁻⁶ cm/s
Compound: N[C@H]1CC[C@H](CS(=O)(=O)N2CCC(NC(=O)c3cc(C4CC4)on3)CC2)CC1

- Papp [2]: 6.6 ×10⁻⁶ cm/s
Compound: O=C(NC1CCN(S(=O)(=O)C[C@H]2CC[C@H](NCc3cc(F)ccn3)CC2)CC1)c1cc(C2CC2)on1

- solubility kinetic [1]: 420 µM (≈ 167 µg/mL)
- Papp [2]: < 1 ×10⁻⁶ cm/s
Compound: N[C@H]1CC[C@@H](S(=O)(=O)N2CCC(NC(=O)c3cc(C4CC4)on3)CC2)CC1

- solubility kinetic [1]: 61 µM (≈ 31.5 µg/mL)
- Papp [2]: 8.9 ×10⁻⁶ cm/s
Compound: Cc1ccc(CN[C@H]2CC[C@H](CS(=O)(=O)N3CCC(NC(=O)c4cc(C5CC5)on4)CC3)CC2)nc1
